Test results from patent publication US20040002537A1, “Use of statins in the treatment of autoimmune disease” (priority 2002, published 2004).

Columns and labels:
[1] = tested on: MOG p35-55-induced EAE in C57BL/6 mice; assay: MOG p35-55-induced chronic EAE, oral atorvastatin; type: in vivo, mouse; settings: daily oral
[2] = tested on: PLP p139-151-induced EAE in SJL/J mice; assay: PLP p139-151-induced relapsing EAE, oral atorvastatin; type: in vivo, mouse
[3] = tested on: MBP Ac1-11-induced EAE in MBP Ac1-11 Tg mice; assay: MBP Ac1-11-induced acute EAE, oral atorvastatin; type: in vivo, mouse; settings: FIG. 1E
[4] = tested on: PLP p139-151-stimulated spleen cells
Protocol: Ag Specific Ex-vivo T Cell Proliferation Assay. […] Lymph node cells (LNCs) or splenocytes were cultured in vitro for specific proliferative response to the specific encephalogenic peptide (PLP 139-151, MOG 35-55 or MBP Ac1-11, respectively). LNCs were prepared in 96-well microtiter plates in a volume of 0.2 ml/well at a concentration of 5×10^6 cells/ml. The culture medium consisted of enriched RPMI (RPMI 1640 supplemented with L-glutamine [2 mM], sodium pyruvate [1 mM], nonessential amino acids [0.1 mM], penicillin [100 U/ml], streptomycin [0.1 mg/ml], 2-ME [5×10^−5 M]) supplemented with 1% autologous fresh normal mouse serum with the addition of different peptides concentrations. Cultures were incubated in 37° C. in humidified air containing 5% CO2. Cultures taken from SJL/J or C57BL/6 mice were incubated for 72h whereas cultures from MBPAc-1-11 Tg mice were incubated for 48 hours and then were pulsed for 18 hr with 1 μCi/well of [^3H] thymidine. The cells were then harvested and counted in a β counter.

[5] = tested on: Th1/Th2 cytokines (IL-2, IFN-γ, IL-4, IL-10); assay: Cytokine profile determination by ELISA, ex vivo lymph node and spleen cells; type: in vivo, mouse
Protocol: Cytokine Profile Determination. Lymph node cells and spleen cells from EAE donors were stimulated in vitro (2.5×10^6 cells/ml) in 24-well plates with or without the encephalogenic peptide or with […] as positive control. Cell culture supernatants were collected at different time points for measurements of cytokine levels: 48 hours for IL-2 , 72 hours for IFN-γ and TNF α, and 120 hours for […]. Cytokine levels were determined using specific ELISA kits for the corresponding cytokines according to the manufacturer's protocols (PharMingen, San Diego, Calif., USA).

[6] = tested on: STAT6; assay: Western blot for STAT6 phosphorylation in draining lymph node cells of treated mice; type: in vivo, mouse; settings: SJL/J mice, 1 mg/kg and 10 mg/kg oral, 10 days after EAE induction, FIG. 5 lanes 2 and 3
Protocol: (§1) Western Blot Analysis for STAT-6 and STAT-4 Phosphorylation. Western Blot analysis was performed as described in Garren et al. (2001) Immunity 15:15, with minor modifications. Lymph nodes from control and atorvastatin-treated mice were homogenized in T-PER protein extraction buffer (Pierce,), with 20 μg/ml aprotinin, 20 μg/ml leupeptin, 1.6 mM Pefablock SC (Roche), 10 mM NaF, 1 mM Na3VO4 and 1 mM Na4P2O7 (Sigma, St. Louis, Mo.). All procedures were handled on ice. As a positive control, lymph node cells from naive mice were isolated and cultured for one hour with mouse recombinant IL-4 (10 ng/ml) or INF-γ (100 units/ml), for STAT6 and STAT4 expression respectively. Protein concentrations were determined by BCA protein assay (Pierce). Lysate was added to 3×SDS loading buffer (Cell Signaling Technology) with 40 mM DTT. Products were separated by electrophoresis on a 4-15% SDS-PAGE gradient gel (BioRad). Pre-stained markers (Invitrogen) were used to determine MW. Gels were blotted to PVDF membranes at 100 V in 25 mM Tris, 192 mM glycine and 20% (v/v) methanol, then blocked 1 hr at RT with Tris-buffered saline (TBS) containing 0.1% Tween-20 and 5% nonfat dry milk. […]

[7] = tested on: MHC II; settings: through the effect on the CIITA p IV gene; cited from earlier work
[8] = tested on: microglia and astrocytes; settings: cited from earlier work
[9] = tested on: STAT6; assay: Western blot for STAT6 phosphorylation, naive lymph node cells cultured with IL-4 (positive control); type: cell-based, mouse; settings: 10 ng/ml for one hour, FIG. 5 lane 4
Protocol: as §1

Molecule: CC(C)c1c(C(=O)Nc2ccccc2)c(-c2ccccc2)c(-c2ccc(F)cc2)n1CC[C@@H](O)C[C@@H](O)CC(=O)O [atorvastatin]
- EAE clinical score, treatment starting at EAE onset ([1]; C57Bl/6 female mice, 1 mg/kg or 10 mg/kg, FIG. 1A): suppressed EAE induction
- EAE clinical score, treatment after onset ([1]; C57Bl/6 mice, FIG. 1B): ameliorated EAE
- Ongoing relapsing EAE, treatment begun after recovery from acute EAE ([2]; FIG. 1D): reversal of ongoing relapsing EAE
- Prevention of relapsing EAE ([2]; treatment at onset, FIG. 1C): effective in prevention of relapsing EAE
- Acute EAE progression [3]: successfully prevented acute EAE progression
- PLP p139-151-specific proliferative responses (3H-thymidine incorporation) ([4]; cells from SJL/J mice treated with 1 or 10 mg/kg, FIG. 4A): suppressed in a dose-related fashion
- Cell death in the in vitro cultures ([4]; lymphocytes from treated mice): not observed increased cell death
- Th2 bias (proliferation and cytokines) in other strains ([5]; C57BL/6 and MBP Ac1-11-specific transgenic mice): almost identical Th2 bias
- Secretion of IL-10 ([5]; SJL/J mice, 10 mg/kg, ELISA, FIG. 4E): observed at the higher treatment dose
- Production of IL-2 ([5]; SJL/J mice, 1 and 10 mg/kg, ELISA, FIG. 4B): reduced, although to a much greater extent in mice treated with 10 mg/kg
- Secretion of IFN-γ ([5]; SJL/J mice, both treatment doses (1 and 10 mg/kg), ELISA, FIG. 4C): dramatic reduction
- IL-4 secretion ([5]; SJL/J mice, both treatment doses (1 and 10 mg/kg), ELISA, FIG. 4D): induced at both treatment doses
- Phosphorylated STAT6 in lymph nodes (Western blot) [6]: phosphorylated STAT6 is seen
- Expression of MHC II [7]: could inhibit the expression of MHC II

Molecule: CC[C@H](C)C(=O)O[C@H]1C[C@@H](C)C=C2C=C[C@H](C)[C@H](CC[C@@H]3C[C@@H](O)CC(=O)O3)[C@H]21 [lovastatin]
- Production of iNOS and proinflammatory cytokines (TNFα, IL-1β and IL-6) [8]: inhibited production

B1: mouse recombinant IL-4: mouse recombinant IL-4 (10 ng/ml), positive control for STAT6 phosphorylation (protein, UniProt P07750 21-140, looked up)
Interleukin-4: HIHGCDKNHLREIIGILNEVTGEGTPCTEMDVPNVLTATKNTTESELVCRASKVLRIFYLKHGKTPCLKKNSSVLMELQRLFRAFRCLDSSISCTMNESKSTSLKDFLESLKSIMQMDYS
- Phosphorylated STAT6 in naive lymph node cells (Western blot) [9]: phosphorylated STAT6 is seen
